For 53 compounds, Ki results are on record in US8877745B2, “CCR2 receptor antagonists, method for producing the same, and use thereof as medicaments” (Boehringer Ingelheim International GmbH, priority 2010, dated 2014).

SMILES strings stand for the structures.

In this experiment the target is T1, CCR2 (Homo sapiens, UniProt P41597).
T1 construct: Membranes were prepared from THP-1 cells; endogenous in cells; host or cells: THP-1 (human acute monocytic leukaemia cells), membrane preparation
T1 sequence (P41597 whole entry): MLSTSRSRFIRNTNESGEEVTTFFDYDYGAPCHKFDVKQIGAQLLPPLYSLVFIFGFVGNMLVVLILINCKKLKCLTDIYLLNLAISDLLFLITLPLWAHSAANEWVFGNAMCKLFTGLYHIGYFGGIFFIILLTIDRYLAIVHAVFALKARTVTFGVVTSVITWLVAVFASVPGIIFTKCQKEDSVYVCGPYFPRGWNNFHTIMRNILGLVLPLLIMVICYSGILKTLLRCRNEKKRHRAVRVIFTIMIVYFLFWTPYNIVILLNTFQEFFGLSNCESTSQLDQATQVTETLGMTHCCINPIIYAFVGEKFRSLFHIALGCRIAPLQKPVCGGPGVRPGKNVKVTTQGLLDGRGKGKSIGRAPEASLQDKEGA
Nature of the experiment: CCR2 receptor membrane binding assay ([125I]MCP-1, THP-1 cell membranes, SPA beads). The following applies: THP-1 membranes, [125I]MCP-1, bound radioactivity determined after 8 h; read-out: hKi. On the procedure: The above exemplary substances have been tested for binding to CCR2 using a binding assay as outlined herein below:
THP-1 cells (human acute monocytic leukaemia cells) were cultured under standardized conditions at 37° C. and 5% CO2 in a humidified incubator. THP-1 cells were cultivated in RPMI 1640 medium (Gibco 21875) containing 1% MEM-NEAA (Gibso 11140) 2 mM L-glutamine, 1.5 g/L sodium bicarbonate, 4.5 g/L glucose, 10 mM HEPES and 1.0 mM sodium pyruvate, 90%; 10% fetal calf serum (FCS Gibco 10500-064).
Membranes were prepared from THP-1 cells. THP-1 cells were centrifuged at 300×g at 4° C. for 10 min. The cell pellet was resuspended in Phosphate Buffer Saline (PBS, including 10 μM Pefabloc and a protease inhibitor mix ‘complete’, Boehringer Mannheim (1 tablet/50 ml)), to a concentration of […]. The membrane preparation was performed by disrupting the cells by nitrogen […] (at 50 bar, for 1 h) in a “Nitrogen Bombe” (Parr Instrument). Cell debris was removed by centrifugation (800×g at 4° C., 1 min). The supernatant was centrifuged at 80000×g, 4° C. for 30 min to sediment the cell membranes. Usually 50 mg of protein (Bradford assay) were yielded from 1×10E9 cells. The membranes were resuspended in 25 mM HEPES, 25 mM MgCl2, 1 mM CaCl2, 10% Glycerine for storage in aliquots at −80° C. in 25 mM HEPES, 25 mM MgCl2, 1 mM CaCl2, 10% Glycerine and stored at −80° C.
Receptor Membrane Binding Assay:
Perkin Elmer NEX 332 Jod 125 MCP-1, Stock: 2200 Ci/mmol solved in […] assay buffer, stored at −20° C. THP-1 membrane were adjusted with 25 mM HEPES, pH 7.2; 5 mM MgCl2; 0.5 mM CaCl2; 0.2% BSA assay buffer to a concentration of 2.5 μg/15 μl. Amersham Biosciences PVT-WGA Beads (RPNQ0001) were adjusted with assay buffer to a concentration of 0.24 mg/30 μl. For preparation of the membrane-bead-suspension membranes and beads were incubated for 30 min at RT under rotation (60 rpm) with a ratio of 1:2. Test compounds dissolved in 100% DMSO to a concentration of 10 mM and are further diluted with 100% DMSO to 1 mM. All additional compound dilutions were obtained with assay buffer, final 1% DMSO. Compounds, membrane-bead-suspension and [^125I]MCP-1 (ca. 25000 cpm/10 μl) were incubated. Bound radioactivity was determined by scintillation counter after 8 h. Determination of affinity of test compounds (dissociation constant hKi) is calculated by iterative fitting of experimental data using the “easy sys” program, which is based on law of mass action (Schittkowski K. (1994), Numerische Mathematik, Vol. 68, 129-142).
With `COC1COCCC1NC1CCN(C(=O)c2ncnc(N3CCc4ccccc4CC3)c2C)CC1` (centres unmarked) [Example 54], the Ki was 0.636 µM.

`COC1COCCC1NC1CCN(C(=O)c2ncnc(N3CCc4ccc(C#N)cc4C3)c2C)CC1` (centres unmarked) [Example 55]: the Ki worked out at 0.235 µM.

As to `COC1COCCC1NC1CCN(C(=O)c2ncnc(N3CCN(c4ccc(C(F)(F)F)cn4)CC3)c2C)CC1` (centres unmarked) [Example 56], the Ki is 1.02 µM.

`COC1COCCC1NC1CCN(C(=O)c2ncnc(N3CCN(c4cccc(C(F)(F)F)c4)CC3)c2C)CC1` (centres unmarked) [Example 57]: the Ki was 0.189 µM.

As for `COC1COCCC1NC1CCN(C(=O)c2ncnc(N3CCCc4ccccc4C3)c2C)CC1` (centres unmarked) [Example 58], the Ki was 4.24 µM.

`COC1COCCC1NC1CCN(C(=O)c2ncnc(N3CCc4ccc(C)cc4C3)c2C)CC1` (centres unmarked) [Example 59]: the Ki was found to be 0.042 µM.

On to `COC1COCCC1NC1CCN(C(=O)c2ncnc(N3CCc4ccc(C(F)(F)F)cc4C3)c2C)CC1` (centres unmarked) [Example 60], for which the Ki amounted to 0.005 µM.

For the compound `COC1COCCC1NC1CCN(C(=O)c2ncnc(N3CCc4ncc(C(F)(F)F)cc4C3)c2C)CC1` (centres unmarked) [Example 61], the Ki is 0.309 µM.

`COC1COCCC1NC1CCN(C(=O)c2ncnc(N3CCC4(CCc5ccccc54)CC3)c2C)CC1` (centres unmarked) [Example 62]: the Ki came out at 0.59 µM.

For the compound `CO[C@@H]1COCC[C@@H]1NC1CCN(C(=O)c2cc(N3CCc4ccc(C(F)(F)F)cc4C3)ncn2)CC1` [Example 62a], the Ki worked out at 0.566 µM.

As to `COC1COCCC1NC1CCN(C(=O)c2ncnc(N3CCN(c4ccccc4Cl)CC3)c2C)CC1` (centres unmarked) [Example 62aa], the Ki is 0.089 µM.

Turning to `COC1COCCC1NC1CCN(C(=O)c2ncnc(N3CCC4(CCc5cc(Br)ccc5O4)CC3)c2C)CC1` (centres unmarked) [Example 62ab], the Ki was 0.016 µM.

Consider `COC1COCCC1NC1CCN(C(=O)c2ncnc(N3CCn4cc(C(F)(F)F)nc4C3)c2C)CC1` (centres unmarked) [Example 62ac], for which the Ki turned out to be 1 µM.

With `COC1COCCC1NC1CCN(C(=O)c2ncnc(N3CCN(c4ccc5c(c4)OCCO5)CC3)c2C)CC1` (centres unmarked) [Example 62ad], the Ki is 0.336 µM.

In the case of `COc1cc(N2CCN(c3ncnc(C(=O)N4CCC(NC5CCOCC5OC)CC4)c3C)CC2)cc(C(F)(F)F)c1` (centres unmarked) [Example 62ae], the Ki came to 0.049 µM.

Turning to `COC1COCCC1NC1CCN(C(=O)c2ncnc(N3CCN(c4cccc(C)c4)CC3)c2C)CC1` (centres unmarked) [Example 62af], the Ki stood at 0.257 µM.

`COC1COCCC1NC1CCN(C(=O)c2ncnc(N3CCN(c4ccc(Cl)cc4Cl)CC3)c2C)CC1` (centres unmarked) [Example 62ag]: the Ki was 0.04 µM.

Turning to `COC1COCCC1NC1CCN(C(=O)c2ncnc(N3CCN(c4cccc(C)c4C)CC3)c2C)CC1` (centres unmarked) [Example 62ah], the Ki worked out at 0.041 µM.

`COC1COCCC1NC1CCN(C(=O)c2ncnc(N3CCN(c4c(C)cccc4C)CC3)c2C)CC1` (centres unmarked) [Example 62ai]: the Ki stood at 0.034 µM.

With `COC1COCCC1NC1CCN(C(=O)c2ncnc(N3CCN(c4c(Cl)cncc4Cl)CC3)c2C)CC1` (centres unmarked) [Example 62aj], the Ki is 0.035 µM.

With `COC1COCCC1NC1CCN(C(=O)c2ncnc(N3CCN(c4cc(F)cc(F)c4)CC3)c2C)CC1` (centres unmarked) [Example 62ak], the Ki is 0.145 µM.

For `COC1COCCC1NC1CCN(C(=O)c2ncnc(N3CCN(c4ccc(Cl)c(Cl)c4)CC3)c2C)CC1` (centres unmarked) [Example 62al], the Ki was determined as 0.128 µM.

Regarding `CO[C@@H]1COCC[C@@H]1NC1CCN(C(=O)c2ncnc(N3CCC4(CCc5cc(Br)ccc5O4)CC3)c2C)CC1` [Example 62am], the Ki is 0.012 µM.

On to `CO[C@@H]1COCC[C@@H]1NC1CCN(C(=O)c2ncnc(N3CCC4(CCc5cc(Cl)ccc5O4)CC3)c2C)CC1` [Example 62an], for which the Ki turned out to be 0.012 µM.

With `COC1COCCC1NC1CCN(C(=O)c2ncnc(N3CC4CC4(c4cccc(C(F)(F)F)c4)C3)c2C)CC1` (centres unmarked) [Example 62b], the Ki stood at 0.357 µM.

As to `COC1COCCC1NC1CCN(C(=O)c2ncnc(N3CC4CC4(c4cc(C(F)(F)F)cc(C(F)(F)F)c4)C3)c2C)CC1` (centres unmarked) [Example 62c], the Ki worked out at 0.351 µM.

With `COC1COCCC1NC1CCN(C(=O)c2ncnc(N3CCCN(c4ccccc4C)CC3)c2C)CC1` (centres unmarked) [Example 62d], the Ki was 0.305 µM.

Regarding `COC1COCCC1NC1CCN(C(=O)c2ncnc(N3CCC(c4ccccc4Cl)C3)c2C)CC1` (centres unmarked) [Example 62e], the Ki worked out at 0.419 µM.

Consider `COC1COCCC1NC1CCN(C(=O)c2ncnc(N3CCCC4(CCCCC4)C3)c2C)CC1` (centres unmarked) [Example 62f], for which the Ki was determined as 9.56 µM.

With `COC1COCCC1NC1CCN(C(=O)c2ncnc(N3CCC4(CC3)CC(=O)c3cc(F)ccc3O4)c2C)CC1` (centres unmarked) [Example 62g], the Ki was found to be 0.538 µM.

Take `COC1COCCC1NC1CCN(C(=O)c2ncnc(N3CCC4(CC3)CC(=O)c3ccccc3O4)c2C)CC1` (centres unmarked) [Example 62h]: the Ki was 0.983 µM.

Take `COC1COCCC1NC1CCN(C(=O)c2ncnc(N3CCC4(CC3)CC(=O)c3cc(Br)ccc3O4)c2C)CC1` (centres unmarked) [Example 62i]: the Ki stood at 0.184 µM.

With `COC1COCCC1NC1CCN(C(=O)c2ncnc(N3CCCN(c4ccc(Cl)cc4)CC3)c2C)CC1` (centres unmarked) [Example 62j], the Ki worked out at 0.516 µM.

For `COC1COCCC1NC1CCN(C(=O)c2ncnc(N3CCc4ccc(C(C)C)cc4C3)c2C)CC1` (centres unmarked) [Example 62k], the Ki worked out at 0.012 µM.

Take `COC1COCCC1NC1CCN(C(=O)c2ncnc(N3Cc4ccccc4C4(CC4)C3)c2C)CC1` (centres unmarked) [Example 62l]: the Ki was 1.38 µM.

As to `COC1COCCC1NC1CCN(C(=O)c2ncnc(N3CCN(c4ccccc4C)CC3)c2C)CC1` (centres unmarked) [Example 62m], the Ki was 0.3 µM.

Regarding `COC1COCCC1NC1CCN(C(=O)c2ncnc(N3CCCC(c4ccccc4)CC3)c2C)CC1` (centres unmarked) [Example 62n], the Ki is 0.192 µM.

With `COC1COCCC1NC1CCN(C(=O)c2ncnc(N3CCC4CC4(c4ccc(Br)cc4)C3)c2C)CC1` (centres unmarked) [Example 62o], the Ki was 1.08 µM.

Turning to `COC1COCCC1NC1CCN(C(=O)c2ncnc(N3CCN(c4ccc(C(F)(F)F)cc4)CC3)c2C)CC1` (centres unmarked) [Example 62p], the Ki is 0.119 µM.

Consider `COC1COCCC1NC1CCN(C(=O)c2ncnc(N3CCN(c4ccc5c(c4)OCO5)CC3)c2C)CC1` (centres unmarked) [Example 62q], for which the Ki was determined as 0.78 µM.

Take `COC1COCCC1NC1CCN(C(=O)c2ncnc(N3CCN(c4ncnc5scc(C)c45)CC3)c2C)CC1` (centres unmarked) [Example 62r]: the Ki is 0.411 µM.

As for `COC1COCCC1NC1CCN(C(=O)c2ncnc(N3CCn4c(-c5ccccc5)cnc4C3)c2C)CC1` (centres unmarked) [Example 62s], the Ki came out at 5.14 µM.

With `COC1COCCC1NC1CCN(C(=O)c2ncnc(N3CCN(c4cc(Cl)cc(Cl)c4)CC3)c2C)CC1` (centres unmarked) [Example 62t], the Ki came to 0.017 µM.

With `COC1COCCC1NC1CCN(C(=O)c2ncnc(N3CCN(c4ccc(F)c(Cl)c4)CC3)c2C)CC1` (centres unmarked) [Example 62u], the Ki is 0.114 µM.

Take `COC1COCCC1NC1CCN(C(=O)c2ncnc(N3CCN(c4ccc(Cl)c(C(F)(F)F)c4)CC3)c2C)CC1` (centres unmarked) [Example 62w]: the Ki came to 0.054 µM.

Consider `COC1COCCC1NC1CCN(C(=O)c2ncnc(N3CCN(c4cccc(Cl)c4Cl)CC3)c2C)CC1` (centres unmarked) [Example 62x], for which the Ki is 0.018 µM.

With `COC1COCCC1NC1CCN(C(=O)c2ncnc(N3CCN(c4ccc(Cl)cc4C)CC3)c2C)CC1` (centres unmarked) [Example 62y], the Ki is 0.012 µM.

On to `COC1COCCC1NC1CCN(C(=O)c2ncnc(N3CCN(c4ccccc4C(F)(F)F)CC3)c2C)CC1` (centres unmarked) [Example 62z], for which the Ki came out at 0.03 µM.

As to `CO[C@@H]1COCC[C@@H]1NC1CCN(C(=O)c2ncnc(N3CCc4ccc(C(F)(F)F)cc4C3)c2C)CC1` [Example 63], the Ki came out at 0.004 µM.

Regarding `CO[C@H]1COCC[C@H]1NC1CCN(C(=O)c2ncnc(N3CCc4ccc(C(F)(F)F)cc4C3)c2C)CC1` [Example 64], the Ki came to 0.013 µM.

Turning to `CO[C@@H]1COCC[C@@H]1NC1CCN(C(=O)c2ncnc(N3CCc4ccc(OC(F)(F)F)cc4C3)c2C)CC1` [Example 65], the Ki amounted to 0.016 µM.

`CO[C@@H]1COCC[C@@H]1NC1CCN(C(=O)c2ncnc(N3CCc4ccc(Cl)cc4C3)c2C)CC1` [Example 66]: the Ki worked out at 0.022 µM.

As to `COc1c(C(=O)N2CCC(N[C@@H]3CCOC[C@@H]3OC)CC2)ncnc1N1CCc2ccc(C(F)(F)F)cc2C1` [Example 67], the Ki was 0.021 µM.
